Assay results reported in article PMC6332339, “Synthesis, Characterization, and Anti-Cancer Activity of Some New N′-(2-Oxoindolin-3-ylidene)-2-propylpentane hydrazide-hydrazones Derivatives” (Molecules, 2015).
“Also recorded” adds a separate entry of the source.

Experiments:
[1] = test system: HepG2 human liver cancer cell line; test: MTT cytotoxicity assay in HepG2 cells; assay type: cell-based; details: 24 h treatment, mean ± SD; for IC50: Homo sapiens
Protocol: (§1) The cyto-toxicity activity was measured in vitro in HepG2, Jurkat, and HEK 293 cells using the MTT […] colorimetric assay. For comparison, 5-Fluorouracil (5-FU) was used as a standard anti-cancer drug. Treatment with dimethylsulfoxide (DMSO) was used as a control for the cancer cells.
(§2) The stock concentration of the entire compound in DMSO was 10 mM and this concentration was used to prepare the working dilution. The final DMSO concentration used in the experiments was ≤0.5% as the working concentration. Human liver cancer cell lines (HepG2), human leukemia cell line (Jurkat), and human embryonic kidney cell line (HEK293) cells were cultured in high glucose Dulbecco’s Modified Eagle Medium (DMEM: Life technologies cat #11995073) supplemented with 10% Fetal bovine serum (FBS: Life technologies cat #16000044) in a humidified incubator with 5% CO2 at 37 °C. Around 2 ×10^3 cells were seeded in each well of a 24-well cell culture plate and were allowed to adhere and grow for 24 h. The Jurkat cells grow in suspension so they were cultured and allowed to grow overnight before the addition of compounds. The compounds in serial dilutions (1, 3, 15, 45, 100, and 300 μM) were added after 24 h of culture and the cells were cultured for another 24 h at 37 °C. The cell viability was determined in each experiment using MTT 1-(4,5-dimethylthiazol-2-yl)-3,5-diphenylformazan colorimetric assay. Briefly, the treated or untreated cells were trypsenized and centrifuged, and the resulting pellet was re-suspended in 100 μL of DMEM serum-free medium and incubated at 37 °C for 2 h. After incubation, 20 μL of MTT solution (5 mg/mL in PBS: Sigma Aldrich cat #M2003) was added to each well and further incubated for 2 h. The plate was centrifuged at […] for 10 min then the medium was removed from each well and 2-propanol containing 0.04 M HCl was added to dissolve the formazan produced in the cells. The optical density of the formazan product in solution was measured with a microplate reader at 540 nm. The experiment was conducted in triplicate. Data were calculated as percent of cell viability by the following formula:
(§3) % cell viability = (Mean absorbance in test wells/Mean absorbance in control wells) × 100 (1)
(§4) The IC50 values were calculated from the means of six different concentrations by Bio Data Fit 1.02 using the software Bio Tool Kit (Version 300; Chang Bioscience Inc., Castro Valley, CA, USA) and online program http://ic50.tk/index.html.

[2] = test system: HEK293 human embryonic kidney cell line; test: MTT cytotoxicity assay in normal HEK293 cells; assay type: cell-based; details: 24 h treatment, mean ± SD; for IC50: Homo sapiens
Protocol: as §1, §2, §3, §4

[3] = test system: Jurkat human leukaemia cell line; test: MTT cytotoxicity assay in Jurkat cells; assay type: cell-based; details: 24 h treatment, mean ± SD
Protocol: as §1, §2, §3, §4

[4] = test system: human tumour cell lines (HepG2 and Jurkat); test: MTT assay, summary over the tested human tumour cell lines; assay type: cell-based; details: summary over HepG2 and Jurkat cells
Protocol: as §1, §2, §3, §4

Structure (SMILES) | IC50 (μM) HepG2 [1] | IC50 [1] | IC50 [2] | IC50 ([3]; Homo sapiens, Jurkat, 24 h) | IC50 (μM) HEK293 [2] | IC50 [4] | IC50 ([3]; Homo sapiens) | IC50 (μM) Jurkat [3] | melting point | IC50 [3]
CCCC(CCC)C(=O)O [Compound 1, Valproic acid, reference compound] | did not show promising anti-cancer activity | 69.7 ± 40.8 µM | 63 ± 38.2 µM | 79.4 ± 40.7 µM | – | – | – | – | – | –
CCCC(CCC)C(=O)NN [Compound 2, Valproic Hydrazide] | did not show promising anti-cancer activity | 68.5 ± 37.1 µM | > 100 µM | > 100 µM | – | – | – | – | – | –
O=C1Nc2ccccc2C1=O [Compound 3a] | no anti-cancer activity | > 100 µM | 16.7 ± 50 µM | > 100 µM | – | – | – | – | – | –
CN1C(=O)C(=O)c2ccccc21 [Compound 3e] | – | 2.82 µM | > 100 µM | – | no activity | 3 to 7 µM | 7.13 µM | – | – | –
O=C1C(=O)N(Cc2ccccc2)c2ccccc21 [Compound 3f] | – | 3.13 µM | > 100 µM | 3.13 µM | no activity | 3 to 7 µM | – | strong activity | – | –
CC(=O)N1C(=O)C(=O)c2ccccc21 [Compound 3h, N-acetylisatin] | no anti-cancer activity | > 100 µM | > 100 µM | > 100 µM | – | – | – | – | – | –
CCCC(CCC)C(=O)N/N=C1\C(=O)Nc2ccccc21 [Compound 4a, (Z) N′-(2-Oxoindolin-3-ylidene)-2-propylpentane Hydrazide] | inactive; also recorded: no anti-cancer activity | > 100 µM | > 100 µM | 3.14 µM | inactive | 3 to 7 µM | – | strong activity | 175 to 176 °C | 3.15 µM
CCCC(CCC)C(=O)N/N=C1\C(=O)Nc2ccc(Br)cc21 [Compound 4b, (Z) N′-(5-Bromo-2-oxoindolin-3-ylidene)-2-propylpentane Hydrazide] | no anti-cancer activity | > 100 µM | 26.1 ± 31.3 µM | > 100 µM | – | – | – | – | 172 to 173 °C | –
CCCC(CCC)C(=O)N/N=C1\C(=O)Nc2ccc(Cl)cc21 [Compound 4c, (Z) N′-(5-Chloro-2-oxoindolin-3-ylidene)-2-propylpentane Hydrazide] | – | 4.39 µM | 4.77 µM | 2.9 µM | – | 3 to 7 µM | – | strong activity | 154 to 156 °C | –
CCCC(CCC)C(=O)N/N=C1\C(=O)Nc2ccc(F)cc21 [Compound 4d, (Z) N′-(5-Fluoro-2-oxoindolin-3-ylidene)-2-propylpentane Hydrazide] | – | > 100 µM | > 100 µM | > 100 µM | – | – | – | – | 180 to 182 °C | –
CCCC(CCC)C(=O)N/N=C1\C(=O)N(C)c2ccccc21 [Compound 4e, (Z) N′-(1-Methyl-2-oxoindolin-3-ylidene)-2-propylpentane Hydrazide] | – | 7.61 µM | > 100 µM | 3.19 µM | no activity | 3 to 7 µM | – | – | 154 to 156 °C | –
CCCC(CCC)C(=O)N/N=C1\C(=O)N(Cc2ccccc2)c2ccccc21 [Compound 4f, (Z) N′-(1-Benzyl-2-oxoindolin-3-ylidene)-2-propylpentane Hydrazide] | no anti-cancer activity | > 100 µM | > 100 µM | > 100 µM | – | – | – | – | 170 to 172 °C | –
CCCC(CCC)C(=O)N/N=C1\C(=O)N(CCBr)c2ccccc21 [Compound 4g, (Z)-N′-(1-(2-Bromoethyl)-2-oxoindolin-3-ylidene)-2-propylpentane Hydrazide] | no anti-cancer activity | > 100 µM | 45.4 ± 48.9 µM | – | – | – | > 100 µM | – | 90 to 91 °C | –
CCCC(CCC)C(=O)NNC(=O)C(=O)c1ccccc1NC(C)=O [Compound 4h, N-(2-(2-Oxo-2-(2-(2-propylpentanoyl)hydrazinyl)acetyl)phenyl) Acetamide] | no anti-cancer activity | > 100 µM | > 100 µM | > 100 µM | – | – | – | – | 180 to 181 °C | –
O=c1[nH]cc(F)c(=O)[nH]1 [Compound 5-FU, 5-Fluorouracil, reference compound] | – | 32.1 ± 48.1 µM | > 100 µM | 51.2 ± 47.4 µM | – | 32 to 50 µM | – | – | – | –
